Patent US7317028B2, “Cell differentiation inducer” (Schering Aktiengesellschaft, priority 1996, dated 2008)

What was measured:
[1] = test system: A2780 cells; experiment: Test for induction of differentiation in A2780 cells (ALP activity, ALPmin); assay type: cell-based, human; conditions: A2780 cells, 3 days incubation, minimum concentration of the drug inducing increase of ALP activity
Protocol: Increase of alkaline phosphatase (ALP) activity is known as an indicator for differentiation of human colon cancer cells. […] Thus, differentiation inducing action was evaluated using ALP activity as an indicator.
To each well of a 96-well plate was placed 0.1 mL of A2780 cells (15,000 cells/well) and the next day was added 0.1 mL of a sequential dilute of test solution with the medium. […] The reaction was quenched with 0.05 mL/well of 3N sodium hydroxide aq. For each well, an absorbance at 405 nm was measured to determine the minimum concentration of the drug inducing increase of ALP activity (ALPmin).

Row | melting point | Structure (SMILES) | minimal effective concentration ([1]; Homo sapiens, 72 h) [µM] | minimal effective concentration [1] [µM]
1 | 180 to 183 °C (dec.) | CN(C(=O)COCc1cccnc1)c1ccc(C(=O)Nc2ccccc2N)cc1 [Example 125, N-(2-aminophenyl)-4-[N-methyl-N-(pyridin-3-yl)methoxyacetylamino]benzamide] | 0.1 | 
2 | 177 to 182 °C (dec.) | Nc1ccccc1CC(=O)Nc1ccc(C(=O)Nc2ccccc2N)cc1 [Example 105, N-(2-aminophenyl)-4-[(2-aminophenylacetyl)amino]benzamide] | 1 | 
3 | 160 to 164 °C (dec.) | Nc1ccccc1NC(=O)c1ccc(-n2cc(COCc3cccnc3)oc2=O)cc1 [Example 140, N-(2-aminophenyl)-4-[5-(pyridin-3-yl)methyloxymethyl-1,3-oxazolin-2-on-3-yl]benzamide] | 0.3 | 
4 | 193 to 196 °C | CC(Oc1cccnc1)C(=O)Nc1ccc(C(=O)Nc2ccccc2N)cc1 (stereo not shown) [Example 129, N-(2-aminophenyl)-4-[N-[2-(pyridin-3-yl)oxypropionyl]amino]benzamide] | 1 | 
5 | 186 to 189 °C | Nc1ccccc1NC(=O)c1ccc(NC(=O)COCc2ccsc2)cc1 [Example 124, N-(2-aminophenyl)-4-[N-(thiophen-3-yl)methoxyacetylamino]benzamide] | 3 | 
6 | 218 to 220 °C (dec.) | Nc1ccccc1NC(=O)c1ccc(NC(=O)CNC(=O)c2cccnc2)cc1 [Example 127, N-(2-aminophenyl)-4-[N-(N-nicotinoylamino)acetylamino]benzamide] | 0.3 | 
7 | 212 to 215 °C (dec.) | Nc1ccccc1NC(=O)c1ccc(NC(=O)COc2ccc([N+](=O)[O-])cc2)cc1 [Example 134, N-(2-aminophenyl)-4-[N-(4-nitrophenoxyacetyl)amino]benzamide] | 3 | 
8 | 239 to 241 °C (dec.) | Nc1ccccc1NC(=O)c1ccc(C(=O)NCc2ccccc2)cc1 [Example 132, N-(2-aminophenyl)-4-(N-benzylamino)carbonylbenzamide] | 10 | 
9 | 145 °C (dec.) | Nc1ccccc1NC(=O)c1ccc(NC(=O)CN(Cc2cccnc2)C(=O)C(F)(F)F)cc1 [Example 114, N-(2-aminophenyl)-4-[[N-(pyridin-3-yl)methyl-N-trifluoroacetylamino]acetylamino]benzamide] | 3 | 
10 | 232 to 237 °C | Nc1ccccc1NC(=O)c1ccc(NC(=O)Cc2ccccc2)cc1 [Example 100, N-(2-aminophenyl)-4-(phenylacetylamino)benzamide] | 1 | 
11 | 173 to 174 °C | Nc1ccccc1NC(=O)Cc1cc2cc(NC(=O)OCc3cccnc3)ccc2o1 [Example 87, N-(2-aminophenyl)-5-[(pyridin-3-yl)methoxycarbonyl]aminobenzofuran-2-carboxyamide] |  | 
12 | 165 to 167 °C (dec.) | Nc1ccccc1NC(=O)c1ccc(NC(=O)CCCc2cccnc2)cc1 [Example 118, N-(2-aminophenyl)-4-[[4-(pyridin-3-yl)butanoyl]amino]benzamide] |  | 
13 | 230 °C | Nc1ccccc1NC(=O)c1ccc(CNc2c(NCc3cccnc3)c(=O)c2=O)cc1 [Example 144, N-(2-aminophenyl)-4-[N-[3-[(pyridin-3-yl)methylamino]cyclobuten-1,2-dion-4-yl]aminomethyl]benzamide] |  | 

The next lines start with the compound.

Row | Structure (SMILES) | melting point | minimal effective concentration ([1]; Homo sapiens, 72 h) [µM] | minimal effective concentration [1] [µM]
14 | Nc1ccccc1NC(=O)c1ccc(CNC(=O)OCC2=CN(c3ccccc3)CO2)cc1 [Example 62, N-(2-aminophenyl)-4-[N-(3-phenyloxazol-5-yl)methoxycarbonylaminomethyl]benzamide] | 192 to 195 °C |  | 
15 | Nc1cccc(COC(=O)NCc2ccc(C(=O)Nc3ccccc3N)cc2)c1 [Example 73, N-(2-aminophenyl)-4-[N-(3-aminophenyl)methoxycarbonylaminomethyl]benzamide] | 149 to 153 °C (dec.) | 3 | 
16 | Nc1ccccc1NC(=O)c1ccc(CNC(=O)c2ccco2)cc1 [Example 22, N-(2-aminophenyl)-4-[N-(furan-2-yl)carbonylaminomethyl]benzamide] | 197 °C (dec.) |  | 
17 | Nc1ccccc1NC(=O)c1ccc(CNC(=O)OCCCc2cccnc2)cc1 [Example 55, N-(2-aminophenyl)-4-[N-[3-(pyridin-3-yl)propyloxycarbonyl]aminomethyl]benzamide] | 121 to 124 °C | 1 | 
18 | Cc1ccc(O)c(NC(=O)c2ccc(CNC(=O)OCc3cccnc3)cc2)c1 [Example 84, N-(2-hydroxy-5-methylphenyl)-4-[N-(pyridin-3-yl)methoxycarbonylaminomethyl]benzamide] | 155 to 155.5 °C |  | 
19 | Nc1ccccc1NC(=O)c1ccc(CNC(=O)OCc2ccncc2)cc1 [Example 60, N-(2-aminophenyl)-4-[N-(pyridin-4-yl)methoxycarbonylaminomethyl]benzamide] | 180 to 183 °C | 3 | 
20 | Nc1ccccc1NC(=O)c1ccc(CNC(=O)OCc2ccc(Cl)nc2)cc1 [Example 59, N-(2-aminophenyl)-4-[N-(6-chloropyridin-3-yl)methoxycarbonylaminomethyl]benzamide] | 180 to 185 °C | 3 | 
21 | Nc1cccc(CC(=O)NCc2ccc(C(=O)Nc3ccccc3N)cc2)c1 [Example 28, N-(2-aminophenyl)-4-[N-(3-aminophenyl)acetylaminomethyl]benzamide] | 171 to 176 °C | 10 | 
22 | Nc1ccccc1NC(=O)c1ccc(CNC(=O)c2ccno2)cc1 [Example 25, N-(2-aminophenyl)-4-[N-(isoxazol-5-yl)carbonylaminomethyl]benzamide] | 183 to 185 °C (dec.) | 3 | 
23 | Nc1ccccc1NC(=O)c1ccc(CNC(=O)Cc2cccnc2)cc1 [Example 29, N-(2-aminophenyl)-4-[N-(pyridin-3-yl)acetylaminomethyl]benzamide] | 127 °C | 10 | 
24 | Nc1ccccc1NC(=O)c1ccc(CNC(=O)Oc2cccnc2)cc1 | 209 °C (dec.) |  | 
25 | CN1CCCC(COC(=O)NCc2ccc(C(=O)Nc3ccccc3N)cc2)C1 (stereo not shown) [Example 65, N-(2-aminophenyl)-4-[N-(1-methylpiperidin-3-yl)methoxycarbonylaminomethyl]benzamide] | 130 to 135 °C | 3 | 
26 | Cc1cccc(COC(=O)NCc2ccc(C(=O)Nc3ccccc3N)cc2)n1 [Example 53, N-(2-aminophenyl)-4-[N-(6-methylpyridin-2-yl)methoxycarbonylaminomethyl]benzamide] | 138 °C | 3 | 
27 | Nc1ccccc1NC(=O)c1ccc(CNC(=O)c2cccnc2)cc1 [Example 14, N-(2-aminophenyl)-4-(N-nicotinoylaminomethyl)benzamide] | 193 to 196 °C |  | 
28 | Nc1ccccc1NC(=O)c1ccc(CNC(=O)c2ccncc2)cc1 [Example 19, N-(2-aminophenyl)-4-(N-isonicotinoylaminomethyl)benzamide] | 234 to 237 °C (dec.) |  | 
29 | Nc1ccccc1NC(=O)c1ccc(CNC(=O)c2cnccn2)cc1 [Example 20, N-(2-aminophenyl)-4-[N-(pyrazin-2-yl)carbonylaminomethyl]benzamide] | 207 °C (dec.) |  | 
30 | Nc1ccccc1NC(=O)c1ccc(CNC(=O)c2ccccn2)cc1 [Example 12, N-(2-aminophenyl)-4-(N-picolinoylaminomethyl)benzamide] | 173 to 178 °C (dec.) |  | 
31 | CN1CCN(COC(=O)NCc2ccc(C(=O)Nc3ccccc3N)cc2)CC1 [Example 66, N-(2-aminophenyl)-4-[N-(4-methylpiperazin-1-yl)methoxycarbonylaminomethyl]benzamide] |  | 3 | 
32 | Nc1ccccc1NC(=O)c1ccc(CNC(=O)OCc2ccccc2)cc1 [Example 49, N-(2-aminophenyl)-4-[N-(benzyloxycarbonyl)aminomethyl]benzamide] |  | 1 | 
33 | Nc1cccc(NC(=O)c2ccc(CNC(=O)OCc3cccnc3)cc2)c1 [Comp. Ex. 1, N-(3-aminophenyl)-4-[N-(pyridin-3-yl)methoxycarbonylaminomethyl]benzamide, reference compound] |  | > 100 | 
34 | Nc1ccccc1NC(=O)c1ccc(CNC(=O)c2cccs2)cc1 [Example 21, N-(2-aminophenyl)-4-[N-(thiophen-2-yl)carbonylaminomethyl]benzamide] | 202 to 205 °C (dec.) |  | 
35 | CC(Oc1cccnc1)C(=O)NCc1ccc(C(=O)Nc2ccccc2N)cc1 (stereo not shown) [Example 47, N-(2-aminophenyl)-4-[N-[2-(pyridin-3-yl)oxy]propionylaminomethyl]benzamide] | 171 to 173 °C (dec.) |  | 
36 | Nc1cccc(NC(=O)NCc2ccc(C(=O)Nc3ccccc3N)cc2)c1 [Example 90, N-(2-aminophenyl)-4-[N′-(3-aminophenyl)ureidomethyl]benzamide] |  |  | 3
37 | Nc1ccc(OCC(=O)Nc2ccc(C(=O)Nc3ccccc3N)cc2)cc1 [Example 135, N-(2-aminophenyl)-4-[(4-aminophenoxyacetyl)amino]benzamide] |  | 3 | 
38 | Nc1nc(CC(=O)NCc2ccc(C(=O)Nc3ccccc3N)cc2)cs1 [Example 36, N-(2-aminophenyl)-4-[N-(2-aminothiazol-4-yl)acetylaminomethyl]benzamide] |  | 10 | 
39 | Nc1ccccc1NC(=O)c1ccc(CNC(=O)OCc2cccnc2Cl)cc1 [Example 58, N-(2-aminophenyl)-4-[N-(2-chloropyridin-3-yl)methoxycarbonylaminomethyl]benzamide] |  | 3 | 
